{"source": "ChEMBL document CHEMBL5344478", "about": "“Cytochrome bd oxidase: an emerging anti-tubercular drug target” (RSC Med Chem, 2024)"}
{"test_system": "Mycobacterium tuberculosis variant bovis", "assay": "Antibacterial activity against Mycobacterium bovis BCG assessed as reduction in bacterial growth", "format": "functional, organism-based", "units": {"IC50": "nM"}}
{"smiles": "CC(C)(C)c1ccc(CCNc2ncnc3ccsc23)cc1", "IC50": 5800}
{"smiles": "CC(C)(C)c1ccc(CCNc2ncnc3ccccc23)cc1", "IC50": 800}
{"smiles": "Fc1ccc2c(NCCc3ccc(OC(F)(F)F)cc3)ncnc2c1", "IC50": 800}
